Results published in patent publication US20140205660A1, “Abscisic acid against cancer” (priority 2013, published 2014).
Like-named read-outs stand apart in the source and are kept apart here.

Experiments:
[1] = 50 mg/ml, Sigma-Aldrich material; cited from earlier work
[2] = system: leaf discs of V. Faba; conditions: cited from earlier work
[3] = can rearrange to PA; cited from earlier work
[4] = system: nuclear protein Ki67; conditions: proliferating tumor cells; cited from earlier work
[5] = system: DU-145 (prostate cancer); conditions: DU-145 tumor cells; cited from earlier work
[6] = system: C1498 transplanted tumor with myeloid leukemia; conditions: groups of 10 mice, 7 days treatment, cited from earlier work
[7] = system: stomata opening; conditions: 10 mcM ABA extracellular, cited from earlier work
[8] = system: cancer; conditions: 62 human cases, digestive ABA plus six vaccines, inconclusive cases not considered; cited from earlier work
[9] = system: cancer cell lines; conditions: HELA, DU 145, HCT115, K562, C1498, HL-60, SMMC-7721, Tca8113; cited from earlier work
[10] = system: TCA8113 cells; conditions: cited from earlier work
[11] = system: Lemna gibba G1; conditions: cited from earlier work
[12] = system: HL-60 (promyelocytic leukemia); conditions: HL-60 tumor cells; cited from earlier work
[13] = system: HELA, DU145, HCT116 AND K562; conditions: cited from earlier work
[14] = system: C1498 transplanted tumor with myeloid leukemia; assay: Survival of C57BL/6J mice with C1498 transplanted tumor (Livingston); type: in vivo; conditions: for survival: oral
From the text: For determination of cancer survival rate, she used C57BL/6J mice and C1498 transplanted tumor with myeloid leukemia purchased from the Jackson Laboratory in Maine. This type of cancer was lethal in mice in 10-15 days. ABA furnished by Hoffmann-Laroche was suspended in saline and administered as suspension. Groups of 10 mice were used for treatment for a total of 7 days.

CC1=CC(=O)CC(C)(C)C1(O)/C=C/C(C)=C\C(=O)O (racemic) [(+/−)-Abscisic acid]
appearance of solution in ethanol [1]: clear to slightly hazy

CC1=CC(=O)CC(C)(C)C1(O)/C=C/C(C)=C\C(=O)O (racemic) [racemic ABA, reference compound]
half-life [2]: 30 to 32 h

CC(C=CC1(O)C(C)=CC(=O)CC1(C)CO)=CC(=O)O (centres unmarked) [Metabolite C, 6′-hydroxy methyl ABA]
stability [3]: extremely unstable

[S-(Z,E)]-5-(1-Hydroxy-2,6,6-trimethyl-4-oxo-2-cyclohexen-1-yl)-3-methyl-2,4-pentadienoic acid [ABA]
nuclear protein Ki67 expression [4]: reduced | changes in morphology of cancer cells [5]: growth in poor condition and nuclear pycnosis | rate of survival at the end of 14 days ([6]; ABA 1 mg/kg i.p.): 9 survivors | rate of survival at the end of 14 days ([6]; ABA 10 mg/kg i.p.): 10 survivors | rate of survival at the end of 14 days ([6]; ABA 10 mg/kg oral): 6 survivors | rate of survival at the end of 14 days ([6]; ABA 100 mg/kg oral): 9 survivors | half-life [2]: 6 to 8 h | inhibition of stomata opening ([7]; pH 6.15): 98% | inhibition of stomata opening ([7]; pH 8.0): 57% | success rate [8]: around 82% | effect against cancer cell lines [9]: severe effect | Involucrin protein expression ([10]; differentiation of TCA8113 affected by ABA): expressed | retinoic acid receptor beta (RARBETA) expression ([10]; under treatment with ABA): expressed and not silenced | potential increase in average ([11]; 10-100 mcm ABA): 85 mV | EPD after ABA treatment ([11]; after 15 hours ABA treatment, from −109 mV): −194 mV | changes in morphology of cancer cells [12]: absence of tumor cell nuclear membrane microvillus and presentation of typical apoptosis characteristics | effects in four human cancer cell lines [13]: caused a tumor growth reduction, reduced cell proliferation rate, changed cell cycle progression, and produced induction of apoptosis | survivors ([14]; group II, 1 mg/kg): 90% | survival ([14]; 10 mg/kg): 60% | survival ([14]; 100 mg/kg): 90%
